{"source": "paper PMC9551036", "about": "“A selective and orally bioavailable VHL-recruiting PROTAC achieves SMARCA2 degradation in vivo” (Nature Communications, 2022)", "key": {"SMARCA4": {"target": "SMARCA4 (Homo sapiens, UniProt P51532)", "sequence (P51532 whole entry)": "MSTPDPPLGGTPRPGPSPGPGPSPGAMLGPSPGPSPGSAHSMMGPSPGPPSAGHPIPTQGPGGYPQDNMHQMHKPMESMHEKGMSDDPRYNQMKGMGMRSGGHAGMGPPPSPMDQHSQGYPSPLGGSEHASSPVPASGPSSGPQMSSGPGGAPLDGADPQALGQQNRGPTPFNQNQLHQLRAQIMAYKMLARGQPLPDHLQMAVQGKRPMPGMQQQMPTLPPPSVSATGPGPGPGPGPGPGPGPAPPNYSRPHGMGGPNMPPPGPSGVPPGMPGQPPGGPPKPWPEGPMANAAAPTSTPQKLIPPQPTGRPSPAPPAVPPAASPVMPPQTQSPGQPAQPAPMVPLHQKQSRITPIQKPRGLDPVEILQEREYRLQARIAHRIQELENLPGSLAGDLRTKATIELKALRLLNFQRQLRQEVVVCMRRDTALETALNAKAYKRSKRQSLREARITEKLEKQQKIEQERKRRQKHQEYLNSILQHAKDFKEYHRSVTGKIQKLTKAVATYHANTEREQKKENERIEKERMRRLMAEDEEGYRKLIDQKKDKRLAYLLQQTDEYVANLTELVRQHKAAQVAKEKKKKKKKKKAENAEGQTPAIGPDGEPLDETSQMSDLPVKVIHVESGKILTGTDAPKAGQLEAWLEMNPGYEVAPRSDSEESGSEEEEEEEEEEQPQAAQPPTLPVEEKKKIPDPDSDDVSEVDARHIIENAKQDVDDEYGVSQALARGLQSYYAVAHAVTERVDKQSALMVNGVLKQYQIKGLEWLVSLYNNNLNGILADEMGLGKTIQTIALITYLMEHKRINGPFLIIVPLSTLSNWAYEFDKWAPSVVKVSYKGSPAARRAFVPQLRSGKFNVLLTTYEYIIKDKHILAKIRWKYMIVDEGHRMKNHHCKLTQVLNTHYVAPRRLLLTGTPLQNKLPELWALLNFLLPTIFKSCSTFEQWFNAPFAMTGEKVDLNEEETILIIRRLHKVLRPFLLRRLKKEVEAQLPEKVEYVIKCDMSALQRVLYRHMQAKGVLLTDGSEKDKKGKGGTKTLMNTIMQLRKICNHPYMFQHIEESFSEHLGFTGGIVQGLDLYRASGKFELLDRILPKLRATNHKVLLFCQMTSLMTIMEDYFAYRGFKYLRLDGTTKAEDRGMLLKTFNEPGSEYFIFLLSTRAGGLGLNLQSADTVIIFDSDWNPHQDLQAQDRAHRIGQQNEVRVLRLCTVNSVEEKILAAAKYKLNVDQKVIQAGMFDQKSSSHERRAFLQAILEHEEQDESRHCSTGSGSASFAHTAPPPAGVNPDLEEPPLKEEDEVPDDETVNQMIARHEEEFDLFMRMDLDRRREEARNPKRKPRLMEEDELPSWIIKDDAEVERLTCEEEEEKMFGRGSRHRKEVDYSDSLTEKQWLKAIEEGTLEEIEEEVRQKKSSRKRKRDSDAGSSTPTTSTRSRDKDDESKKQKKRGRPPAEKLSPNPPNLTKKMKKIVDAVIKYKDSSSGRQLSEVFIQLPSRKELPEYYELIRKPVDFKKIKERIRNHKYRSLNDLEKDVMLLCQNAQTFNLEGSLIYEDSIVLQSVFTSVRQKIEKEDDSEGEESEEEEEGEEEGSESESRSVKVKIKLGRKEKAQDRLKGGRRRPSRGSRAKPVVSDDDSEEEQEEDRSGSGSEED", "test": "Ex vivo human whole blood assay, SMARCA4", "format": "cell-based", "set-up": "endogenous in cells", "details": "for HillSlope (best-fit value): four-parameter fit; for Bottom (best-fit value) / Span (best-fit value) / Top (best-fit value): four-parameter fit of % protein remaining", "method": "The assay was performed on human whole blood from three healthy donors, purchased from the Austrian Red Cross who always obtain samples under informed consent. […] Subsequently, peripheral blood mononucleated cells (PBMCs) were isolated from individual aliquots using SepMate Tubes (StemCell) and Lymphoprep (StemCell) medium according to the manufacturer’s instructions and protein lysates were prepared using MSD Lysis buffer (Mesocale Discovery) supplemented with 1:100 Halt Phosphatase-Protease Inhibitor Cocktail (Thermo Fisher), 0.5 µl/ml benzonase (Novagen) and 10 mM DTT. SMARCA2 and SMARCA4 protein levels were determined using capillary electrophoresis (Bio-Techne) according to manufacturer’s instructions. Incubation with primary antibodies for SMARCA2 (Cell Signalling #11966 clone D9E8B RRID:AB_2797783 1:25), SMARCA4 (Abcam #ab110641 clone EPNCIR111A RRID:AB_10861578 1:25) and GAPDH (Abcam, #ab9485 RRID:AB_307275 1:1000) were performed for 30 min."}, "SMARCA2": {"target": "SMARCA2 (Homo sapiens, UniProt P51531)", "sequence (P51531 whole entry)": "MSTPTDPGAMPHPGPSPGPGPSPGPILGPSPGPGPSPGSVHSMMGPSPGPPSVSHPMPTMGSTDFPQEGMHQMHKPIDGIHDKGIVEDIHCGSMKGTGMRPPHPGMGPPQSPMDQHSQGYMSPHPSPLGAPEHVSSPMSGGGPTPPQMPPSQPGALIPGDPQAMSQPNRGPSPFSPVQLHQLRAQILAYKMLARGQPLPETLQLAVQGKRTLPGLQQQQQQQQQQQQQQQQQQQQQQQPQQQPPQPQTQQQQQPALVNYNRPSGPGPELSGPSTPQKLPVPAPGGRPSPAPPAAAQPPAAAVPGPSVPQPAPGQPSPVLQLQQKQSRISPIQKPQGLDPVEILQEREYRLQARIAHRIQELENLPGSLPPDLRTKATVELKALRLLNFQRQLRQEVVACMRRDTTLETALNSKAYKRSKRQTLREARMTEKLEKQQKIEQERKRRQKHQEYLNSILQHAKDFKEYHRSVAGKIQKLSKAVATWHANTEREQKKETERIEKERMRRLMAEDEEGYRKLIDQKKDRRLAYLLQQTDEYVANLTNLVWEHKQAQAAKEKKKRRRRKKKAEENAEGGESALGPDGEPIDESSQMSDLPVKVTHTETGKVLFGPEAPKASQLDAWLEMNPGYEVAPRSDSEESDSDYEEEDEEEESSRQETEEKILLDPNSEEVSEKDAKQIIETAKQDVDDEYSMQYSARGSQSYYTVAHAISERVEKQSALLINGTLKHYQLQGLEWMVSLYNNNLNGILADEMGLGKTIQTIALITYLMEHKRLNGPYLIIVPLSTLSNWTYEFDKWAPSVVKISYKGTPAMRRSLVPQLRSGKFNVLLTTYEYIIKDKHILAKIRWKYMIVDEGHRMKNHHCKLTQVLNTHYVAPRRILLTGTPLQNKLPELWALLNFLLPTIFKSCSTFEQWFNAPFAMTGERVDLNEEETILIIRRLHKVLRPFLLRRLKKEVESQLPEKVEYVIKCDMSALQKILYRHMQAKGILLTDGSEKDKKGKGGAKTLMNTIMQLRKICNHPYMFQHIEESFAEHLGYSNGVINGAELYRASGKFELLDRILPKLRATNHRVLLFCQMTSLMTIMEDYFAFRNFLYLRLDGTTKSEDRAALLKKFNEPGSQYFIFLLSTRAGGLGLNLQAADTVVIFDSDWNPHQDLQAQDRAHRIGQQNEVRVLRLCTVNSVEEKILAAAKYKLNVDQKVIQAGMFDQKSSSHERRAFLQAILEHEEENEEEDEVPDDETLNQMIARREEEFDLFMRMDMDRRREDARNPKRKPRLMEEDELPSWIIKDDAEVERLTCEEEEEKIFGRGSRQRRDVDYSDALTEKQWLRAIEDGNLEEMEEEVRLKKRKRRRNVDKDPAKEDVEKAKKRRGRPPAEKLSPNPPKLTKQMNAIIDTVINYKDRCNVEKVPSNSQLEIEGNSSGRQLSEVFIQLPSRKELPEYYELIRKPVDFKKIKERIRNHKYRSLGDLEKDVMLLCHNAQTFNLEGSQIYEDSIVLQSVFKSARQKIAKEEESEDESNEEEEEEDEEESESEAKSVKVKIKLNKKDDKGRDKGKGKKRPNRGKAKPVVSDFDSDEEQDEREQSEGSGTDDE", "test": "Western blot of SMARCA2 degradation in NCI-H1568 cells", "format": "cell-based", "set-up": "endogenous in cells; host or cells: RKO, NCI-H1568, A549, HCT116, LU99, HCC-364, HCT-15, HCC4006, SK-N-AS", "method": "Cells were seeded into 6-well plates 24 h before treatment. Next day, several wells were treated with compounds or DMSO as indicated, washed with PBS and lysed with lysis buffer (1% Triton X-100, 150 mM NaCl, 1 mM EDTA, 50 mM Tris pH 7.4, protease inhibitor cocktail (Roche), 50 units/mL benzonase nuclease (Sigma)). Lysates were cleared by centrifugation at 4 °C, at 15,800 × g for 10 min and the supernatants stored at −20 °C. Protein concentration was determined by BCA assay (Pierce) and the absorbance at 562 nm measured by spectrophotometry (NanoDrop ND1000). […] Western blot images were obtained through detection of SMARCA2 (Sigma #HPA029981 RRID:AB_10602406 1:1000), SMARCA4 (Abcam #ab108318 clone EPR3912 RRID:AB_10889900 1:1000), PBRM1 (Bethyl Laboratories #A301-591A RRID:AB_1078808 1:1000), β-actin (Cell Signalling #4970 clone 13E5 RRID:AB_2223172 1:2500) and GAPDH (Abcam #ab9485 RRID:AB_307275 1:2500) antibodies with IRDye 800CW donkey anti-rabbit secondary antibody (LI-COR #926-32213 RRID:AB_621848 1:10000) using a ChemiDoc MP imaging system (Bio-Rad). Western blots were quantified using Image Studio Lite (Licor, version 5.2) with normalisation to loading control and DMSO and further analysed using GraphPad Prism (version 9.2.0)."}, "[1]": {"details": "SuppFig3a, 10 nM, per replicate"}, "[2]": {"details": "SuppFig3a, 100 nM, per replicate"}, "[3]": {"details": "SuppFig3a, 1000 nM, per replicate"}, "[4]": {"details": "SuppFig3c, compound 100 nM + MG132 10 uM"}, "[5]": {"details": "SuppFig3c, compound 100 nM + VH298 10 uM"}, "[6]": {"details": "SuppFig3c, compound 100 nM alone"}}, "note": "Several values for one entry are separate records, joined by “and”; a condition that tells them apart may be missing. Equal entries are not always repeated."}
{"smiles": "Cc1ncsc1-c1ccc(C(CCC(C)CCN2CCC(c3ccc4c(c3)n(C3CCCC3)c3nc(=O)c5c(Br)cccc5n43)CC2)NC(=O)C2CC(O)CN2C(=O)C(NC(=O)C2(F)CC2)C(C)(C)C)cc1", "note": "(stereo not shown) [ACBI2]", "values": [{"measurement": "% protein remaining, SMARCA4", "setting": "SMARCA4; Donor 1, log10[concentration (mol/l)] -6", "result": "46.277% and 56.0869% and 48.4826%"}, {"measurement": "% protein remaining, SMARCA4", "setting": "SMARCA4; Donor 1, log10[concentration (mol/l)] -6.47712", "result": "107.389% and 70.5686% and 73.1116%"}, {"measurement": "% protein remaining, SMARCA4", "setting": "SMARCA4; Donor 1, log10[concentration (mol/l)] -6.95424", "result": "84.4427% and 113.429% and 101.258%"}, {"measurement": "% protein remaining, SMARCA4", "setting": "SMARCA4; Donor 1, log10[concentration (mol/l)] -7.43136", "result": "119.708% and 145.145% and 104.637%"}, {"measurement": "% protein remaining, SMARCA4", "setting": "SMARCA4; Donor 1, log10[concentration (mol/l)] -7.90848", "result": "127.921% and 114.745% and 82.4839%"}, {"measurement": "% protein remaining, SMARCA4", "setting": "SMARCA4; Donor 1, log10[concentration (mol/l)] -8.38561", "result": "104.578% and 95.4334% and 80.9398%"}, {"measurement": "HillSlope (best-fit value)", "setting": "SMARCA4; Donor 1 SMARCA4", "result": -2.117}, {"measurement": "Bottom (best-fit value)", "setting": "SMARCA4; Donor 1 SMARCA4", "result": 40.33, "unit": "%"}, {"measurement": "Span (best-fit value)", "setting": "SMARCA4; Donor 1 SMARCA4", "result": 66.56, "unit": "%"}, {"measurement": "Top (best-fit value)", "setting": "SMARCA4; Donor 1 SMARCA4", "result": 106.9, "unit": "%"}, {"measurement": "% protein remaining, SMARCA4", "setting": "SMARCA4; Donor 2, log10[concentration (mol/l)] -6", "result": "50.102% and 76.224% and 84.3004%"}, {"measurement": "% protein remaining, SMARCA4", "setting": "SMARCA4; Donor 2, log10[concentration (mol/l)] -6.47712", "result": "93.5183% and 92.0167% and 75.7642%"}, {"measurement": "% protein remaining, SMARCA4", "setting": "SMARCA4; Donor 2, log10[concentration (mol/l)] -6.95424", "result": "80.3377% and 113.951% and 102.967%"}, {"measurement": "% protein remaining, SMARCA4", "setting": "SMARCA4; Donor 2, log10[concentration (mol/l)] -7.43136", "result": "130.957% and 130.042% and 111.295%"}, {"measurement": "% protein remaining, SMARCA4", "setting": "SMARCA4; Donor 2, log10[concentration (mol/l)] -7.90848", "result": "121.533% and 102.344% and 98.5667%"}, {"measurement": "% protein remaining, SMARCA4", "setting": "SMARCA4; Donor 2, log10[concentration (mol/l)] -8.38561", "result": "105.689% and 139.901% and 105.419%"}, {"measurement": "% protein remaining, SMARCA4", "setting": "SMARCA4; Donor 2, log10[concentration (mol/l)] -8.86273", "result": "54.3169% and 99.7184% and 98.048%"}, {"measurement": "HillSlope (best-fit value)", "setting": "SMARCA4; Donor 2 SMARCA4", "result": -2.11}, {"measurement": "Bottom (best-fit value)", "setting": "SMARCA4; Donor 2 SMARCA4", "result": 67.18, "unit": "%"}, {"measurement": "Span (best-fit value)", "setting": "SMARCA4; Donor 2 SMARCA4", "result": 40.18, "unit": "%"}, {"measurement": "Top (best-fit value)", "setting": "SMARCA4; Donor 2 SMARCA4", "result": 107.4, "unit": "%"}, {"measurement": "% protein remaining, SMARCA4", "setting": "SMARCA4; Donor 3, log10[concentration (mol/l)] -6.47712", "result": "88.0329% and 79.2762% and 67.3837%"}, {"measurement": "% protein remaining, SMARCA4", "setting": "SMARCA4; Donor 3, log10[concentration (mol/l)] -6.95424", "result": "92.9994% and 98.4764% and 74.8427%"}, {"measurement": "% protein remaining, SMARCA4", "setting": "SMARCA4; Donor 3, log10[concentration (mol/l)] -7.43136", "result": "95.6107% and 82.1879% and 123.028%"}, {"measurement": "% protein remaining, SMARCA4", "setting": "SMARCA4; Donor 3, log10[concentration (mol/l)] -7.90848", "result": "125.23% and 122.739% and 76.3116%"}, {"measurement": "% protein remaining, SMARCA4", "setting": "SMARCA4; Donor 3, log10[concentration (mol/l)] -8.38561", "result": "96.5427% and 109.291% and 74.8647%"}, {"measurement": "% protein remaining, SMARCA4", "setting": "SMARCA4; Donor 3, log10[concentration (mol/l)] -8.86273", "result": "92.1949% and 111.194% and 102.774%"}, {"measurement": "HillSlope (best-fit value)", "setting": "SMARCA4; Donor 3 SMARCA4", "result": -1.413}, {"measurement": "Bottom (best-fit value)", "setting": "SMARCA4; Donor 3 SMARCA4", "result": 61.66, "unit": "%"}, {"measurement": "Span (best-fit value)", "setting": "SMARCA4; Donor 3 SMARCA4", "result": 39.83, "unit": "%"}, {"measurement": "Top (best-fit value)", "setting": "SMARCA4; Donor 3 SMARCA4", "result": 101.5, "unit": "%"}, {"measurement": "SMARCA4 degradation in human whole blood", "setting": "SMARCA4; up to a top concentration of 1 µM", "result": "≤ 50", "unit": "%"}, {"measurement": "SMARCA2 degradation, % DMSO", "setting": "SMARCA2; SuppFig3a, 1 nM, per replicate", "result": "73.2377 % DMSO and 115.98 % DMSO and 86.1519 % DMSO"}, {"measurement": "smarca2/actin norm to DMSO", "setting": "SMARCA2; SuppFig3a, 1 nM, per replicate", "result": "0.7324 and 1.1598 and 0.8615"}, {"measurement": "SMARCA2 degradation, % DMSO", "setting": "SMARCA2; [1]", "result": "22.5404 % DMSO and 46.107 % DMSO and 14.5628 % DMSO"}, {"measurement": "smarca2/actin norm to DMSO", "setting": "SMARCA2; [1]", "result": "0.2254 and 0.4611 and 0.1456"}, {"measurement": "SMARCA2 degradation, % DMSO", "setting": "SMARCA2; [2]", "result": "4.651 % DMSO and 9.376 % DMSO and 28.142 % DMSO"}, {"measurement": "smarca2/actin norm to DMSO", "setting": "SMARCA2; [2]", "result": "0.04651 and 0.09376 and 0.2814"}, {"measurement": "SMARCA2 degradation, % DMSO", "setting": "SMARCA2; [3]", "result": "10.8582 % DMSO and 28.1242 % DMSO and 17.6912 % DMSO"}, {"measurement": "smarca2/actin norm to DMSO", "setting": "SMARCA2; [3]", "result": "0.1086 and 0.2812 and 0.1769"}, {"measurement": "SMARCA2 - combination with inhibitors, % DMSO", "setting": "SMARCA2; [4]", "result": "144.315 % DMSO and 128.607 % DMSO and 88.3654 % DMSO"}, {"measurement": "smarca2/actin norm to DMSO", "setting": "SMARCA2; [4]", "result": "1.443 and 1.286 and 0.8837"}, {"measurement": "SMARCA2 - combination with inhibitors, % DMSO", "setting": "SMARCA2; [5]", "result": "71.7463 % DMSO and 98.6474 % DMSO and 62.3416 % DMSO"}, {"measurement": "smarca2/actin norm to DMSO", "setting": "SMARCA2; [5]", "result": "0.7175 and 0.9865 and 0.6234"}, {"measurement": "SMARCA2 - combination with inhibitors, % DMSO", "setting": "SMARCA2; [6]", "result": "15.1306 % DMSO and 12.518 % DMSO and 13.0375 % DMSO"}, {"measurement": "smarca2/actin norm to DMSO", "setting": "SMARCA2; [6]", "result": "0.1513 and 0.1252 and 0.1304"}]}
